Series [1] deals with T1, octopamine receptor (OctR) (Drosophila melanogaster, UniProt Q9VCZ3).
T1 construct: various amounts of untagged OctR-pcDNA3.1 DNA were transfected into CHO cells; expressed in transfected cells; host or cells: CHO stably expressing G-alpha-16, transient transfection
T1 sequence (Q9VCZ3 1-508): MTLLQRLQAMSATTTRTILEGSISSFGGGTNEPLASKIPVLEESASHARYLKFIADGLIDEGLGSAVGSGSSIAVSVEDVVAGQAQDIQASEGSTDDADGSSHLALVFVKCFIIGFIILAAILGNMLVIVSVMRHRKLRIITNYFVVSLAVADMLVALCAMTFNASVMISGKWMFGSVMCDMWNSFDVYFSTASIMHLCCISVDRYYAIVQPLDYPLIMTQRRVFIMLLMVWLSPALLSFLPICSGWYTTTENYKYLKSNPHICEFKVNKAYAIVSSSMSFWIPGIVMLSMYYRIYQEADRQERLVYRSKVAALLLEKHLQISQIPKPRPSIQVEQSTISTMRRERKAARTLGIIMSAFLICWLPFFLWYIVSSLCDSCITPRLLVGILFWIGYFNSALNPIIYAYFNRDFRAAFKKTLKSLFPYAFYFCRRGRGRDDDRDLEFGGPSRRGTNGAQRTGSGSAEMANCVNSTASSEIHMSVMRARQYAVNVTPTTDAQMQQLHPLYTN
Briefly: Transient OctR expression in CHO G-alpha-16 cells, Fluo-4, Discovery microscope. The class given is cell-based. As to the method:
The untagged and GFP-tagged versions of OctR, which natively couples to cAMP, were transiently expressed in CHO cells stably expressing the G-alpha-16 promiscuous G protein, which signals through calcium. This allowed activation of the receptor to be measured by calcium-sensing fluorescent dyes.
In FIG. 55A, various amounts of untagged OctR-pcDNA3.1 DNA were transfected into CHO cells (6-well dish, 300,000 cells/well) and tested for function at 48 hours using Fluo-4 dye on the Discovery microscope. The graph shown below represents an average of all single-cell readings from cells expressing the cyan vector. It is assumed that the majority of cells expressing the cyan vector also express OctR.
FIG. 55. Calcium-sensing Fluo-4 fluorescent dye response to octopamine or tyramine stimulation in CHO cells stably expressing G-alpha-16 and transiently expressing increasing amounts of untagged or GFP-tagged OctR-pcDNA3.1. Cells cotransfected with pAmCyan vector as a marker of transfected cells were stimulated with a maximal dose of octopamine or sub-maximal dose of tyramine. Well averages of single-cell response measured on the Discovery microscope are graphed above.

The target in another series is T2, ShaI (Drosophila melanogaster, UniProt P17971).
T2 construct: expressed in transfected cells; host or cells: CHO
T2 sequence (P17971 1-490 isoform P17971-1): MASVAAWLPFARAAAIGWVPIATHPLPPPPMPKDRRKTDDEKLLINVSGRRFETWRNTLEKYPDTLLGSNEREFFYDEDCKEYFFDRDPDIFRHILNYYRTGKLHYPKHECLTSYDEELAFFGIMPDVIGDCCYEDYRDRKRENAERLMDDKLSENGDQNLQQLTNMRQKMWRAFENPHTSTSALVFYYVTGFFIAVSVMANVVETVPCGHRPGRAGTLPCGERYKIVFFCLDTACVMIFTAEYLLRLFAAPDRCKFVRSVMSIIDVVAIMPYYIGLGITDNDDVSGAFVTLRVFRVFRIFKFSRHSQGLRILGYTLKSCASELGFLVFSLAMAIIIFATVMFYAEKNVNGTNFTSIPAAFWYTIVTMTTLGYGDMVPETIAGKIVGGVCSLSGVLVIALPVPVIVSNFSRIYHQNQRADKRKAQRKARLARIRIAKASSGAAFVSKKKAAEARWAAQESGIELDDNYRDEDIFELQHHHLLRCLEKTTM
Briefly: ShaI electrophysiology (patch clamp). It counts as cell-based. As to the method: Data were acquired and analyzed using pClamp software (version 9.0.1.16). The whole-cell configuration of the patch-clamp technique was used to voltage clamp cells at room temperature (22-25° C.). Pipettes were pulled from borosilicate glass capillaries (#8250, Garner Glass, Claremont, Calif.) using a DMZ Universal Puller (Zeitz, Munich, Germany) and had resistances of 1-2 MOhm when filled with pipette solution and measured in bath solution. The liquid junction potential between bath and pipette solution was always compensated before the formation of a gigaohm seal.
Membrane current was measured under whole-cell clamp, sampled at 2 kHz and filtered at 1 kHz by an Axoclamp 200B (Axon Instruments). Capacitance currents were electronically compensated at the beginning of each experiment. P/4 leak correction was applied.
To study ShaI currents on CHO cells, cells were held at −70 mV and a family of 500 ms test voltage pulses was applied starting from −70 to +70 mV, or +100 mV, in 10 mV increments. The amplitude, as measured for the current-voltage relationship, was defined as the maximal current at a given membrane potential.
A general note: Patch clamp records ionic current or voltage across a cell membrane.

The subject of the next series is CHO_pcDNA3 control cells. Briefly: CHO_pcDNA3 control cells, FLIPR KCl depolarization. The class given is cell-based, Chinese hamster. To be noted: 4-5 mM, dye loaded 1 hr at RT. How it is done: (§1) The effects of barium (Ba2+) on ShaI_delN function were tested. Barium is known to inhibit some open rectifier and inward rectifier K-channel activities. Cells were dye loaded in the presence of BaCl2 for 1 hr at RT and assayed on the FLIPR using KCl depolarization for channel activation.

For a further series, the target named is T3, ShaI_delN (Drosophila melanogaster, UniProt P17971).
T3 construct: expressed in transfected cells; host or cells: CHO
Put plainly: ShaI_delN clonal lines, FLIPR blue membrane potential dye, KCl depolarization. The class given is cell-based. To be noted: 4-5 mM, dye loaded 1 hr at RT. How it is done:
ShaI_DelN C10 and C15 were tested for function on the FLIPR using the Molecular Devices blue membrane potential dye. The cells were seeded at 60K cells/well in 96-well Costar plates in complete media and assayed for function at 24 hrs. Depolarization with 15-60 mM KCl caused a 2-2.8 fold higher activity in the clonal line than the pcDNA control cell line (FIG. 5). Clone 10 had slightly higher activity than clone 15.
FIG. 5: ShaI_DelN clones tested on FLIPR with KCl depolarization. We also tested some known K-channel blockers on channel activity on the FLIPR (FIG. 6). […] The ShaI_delN clonal cell lines lost their GFP expression and assay window with cell passage. At passage 12, only 10-15% of the cell population was GFP positive.
as §1

Series [2] deals with calcium-activated potassium currents. To be noted: DUM neurons from cockroaches; cited from earlier work.
In another series the target is T4, DmSK Potassium Channel (Drosophila melanogaster, UniProt Q7KVW5).
T4 construct: expressed in transfected cells; host or cells: Xenopus laevis oocytes injected with in vitro transcribed RNA
Put plainly: Xenopus laevis oocyte two-electrode voltage clamp of DmSK. The class given is cell-based. The following applies: intracellular injection of 100 mM, oocytes clamped at +5 mV. As to the method:
Purpose: To utilize the oocyte two-electrode voltage clamp expression system to assay functional expression of the […] Drosophila melanogaster small-conductance calcium-activated potassium channel (SK) within Xenopus laevis oocytes.
Stage V-VI oocytes were injected with 50 nl of in vitro transcribed DmSK RNA (1 ug/ul) using a Drummond Nanoject Injector (pCRII-SK2+4D plasmid linearized with HindIII and transcribed using the Ambion T7 mMessage mMachine transcription kit).
Channel expression was assayed using two-electrode voltage clamp (borosilicate glass 1.5 mm×1.12 mm filled with 3M KCl) through a Turbo Tec 10C Amplifier (NPI Instruments) connected to an Apple PowerMac G3 via an ADInstruments PowerLab system.
Injected oocytes with resting potentials greater than −30 mV were clamped at +5 mV and perfused with ND-96 bath solution (96 mM NaCl, 2 mM KCl, 1 mM MgCl2, 0.3 mM CaCl2, 5 mM HEPES at pH 7.5 and 230 mOsm) Currents measured were filtered at 2 kHz and with a 50/60 Hz HumBug noise eliminator.
SK channels were activated with intracellular injection of 100 mM […] (9.2 nl) using the nanoject while clamped. Measured currents were compared to published results of SK activation within oocytes (FIG. 85).
(Two-electrode voltage clamp holds a large cell at a set potential and records current.)

A short description of series [3]: Stability of octopamine solutions. It counts as physicochemical. How it is done: Octopamine was tested comparing freshly diluted versus a 24-hour solution (data not shown). The response obtained with the 24-hour solution stored at room temperature was identical to that of the freshly diluted solution. We have repeatedly […]
For series [4], the target named is T5, octopamine receptor (OctR, CG6919 dmOa2) (Drosophila melanogaster, UniProt Q9VCZ3).
T5 construct: expressed in transfected cells; host or cells: CHO stably expressing G-alpha-16
Put plainly: OctR clone 55 FLIPR Fluo-4 calcium assay. The class given is cell-based. As to the method: FIG. 62. Cells were plated at 10K/well in 384 well plates and allowed to incubate overnight at […]. The cells were assayed 18-24 hours after seeding. Media was removed and cells were dye loaded for 60 minutes with 2 μM Fluo-4. After 1 hour, dye was removed and 20 μl of buffer added to the plate and placed into FLIPR. The 1st addition was antagonist dose response curves and the 2nd addition was agonist dose response curves. Antagonists were challenged with 100 nM Octopamine. In addition, these compounds were tested in the parental cell line CHO-Galpha16.
Cells were plated at 10,000 cells/well in 50 μl into 384-well black TC plates and allowed to incubate overnight at 37° C./5% CO2. The cells were assayed 18-24 hours after seeding. Culture medium was removed by flicking and cells were dye loaded for 60 minutes with 20 μl of 2 μM Fluo-4 in assay buffer plus probenecid at 25° C. After one hour dye was removed by flicking and 20 μL of assay buffer was added, wait 5 min prior to placing into the FLIPR and run using a two-addition protocol. The first addition (20 ul, 2×) was 0.5% DMSO final in assay buffer. The second addition (20 ul, 3×) was either assay buffer or 100 nM octopamine final.

A short description of series [5]: Ionomycin stability in solution. The class given is physicochemical. To be noted: 5 uM in assay buffer, SK activation. As to the method: An experiment was conducted (data not shown) to examine the stability of ionomycin in solution. Ionomycin was diluted to 5 uM in assay buffer, loaded into a compound plate and compared with freshly-prepared ionomycin for SK activation the following day. The freshly-prepared ionomycin yielded a statistically significant 6% increase in assay window size, so our recommendation is for freshly-prepared ionomycin.

The target in the next series is T6, DmSK (Drosophila melanogaster, UniProt Q7KVW5).
T6 construct: The resulting construct contains the SK CDS downstream of the CMV promoter; expressed in transfected cells; host or cells: CHO-K1 (pool 3 / clone SK3 and subclones)
Put plainly: DmSK CHO membrane potential dye assay, ionomycin activation. The class given is cell-based. As to the method:
Basic test protocol: Cells were plated at 5×10^4/well into 96-well poly-D-lysine assay plates (BD Biosciences) and placed at 37 C/5% CO2 the day before testing. Culture medium was aspirated and replaced with 0.4× blue membrane potential dye (Molecular Devices Corporation) in assay buffer and incubated for 1 hour at RT. The assay was run by reading baseline fluorescence for 20 sec, and reading an additional 60 or 180 sec after activation.
This assay was developed using the Molecular Devices blue membrane potential dye at 0.4× the normal concentration. It is important to vortex the dye upon hydration and rinse the vial repeatedly to ensure that all the dye has been recovered and that it is in solution. The dye can be stored during the day at 4°. Dye loading is carried out by flipping the culture medium from the 96-well poly-D-lysine plate, gently tapping the plate on Kimwipes to remove excess medium, replacing it with 180 ul 0.4× dye per well, and incubating in the dark at room temperature (25° C.-28° C.) for 3-5 hr. The assay plate is now ready for testing which comprises a 20 ul (10×) first addition and 50 ul (5×) second addition. 50 uM propafenone [final] is used as a control inhibitor. The assay is read for three minutes after activation to allow maximum window development relative to controls. […]

Structures are written as SMILES.

As for `NCCc1ccc(O)cc1` [tyramine], the “efficacy relative to octopamine” value in [1] (preliminary data and published reports) was “only slightly less efficacious”. The “activation of octopamine receptor” value in series [1] (sub-maximal dose) is reported as “activated by tyramine”.
On to `[Ba+2]` [Ba2+], for which, on ShaI, the ShaI outward currents result is “not inhibited”. Also, the “fluorescent responses with KCl depolarization” value in the series on CHO_pcDNA3 control cells was “significantly reduced fluorescent responses”. Besides, on ShaI_delN, the “ShaI_delN channel activity with KCl depolarization” value is “without any significant reduction”.
`CSSC` [DMDS, di-methyl disulfide]: the “effect on calcium-activated potassium currents” value in series [2] was “inhibits calcium-activated potassium currents”.
Regarding `[Cl][Cd][Cl]` [cadmium chloride], at DmSK Potassium Channel, the “activation of DmSK outward currents” value is given as “outward currents activated by at least three 9.2 nl injections”.
Turning to `NCC(O)c1ccc(O)cc1` (centres unmarked) [octopamine], the “activity after repeated freeze-thaw” value in series [3] (10 mM DMSO stocks) is on record as “no reduction in activity”. Besides, the “response of 24-hour solution versus freshly diluted solution” value in [3] (stored at room temperature, data not shown) was “identical”. In addition, the “80% octopamine control concentration” value in [4] (20-plate DMSO test run, 2nd addition) turned out to be 100 nM. Moreover, in series [4] (clone 55, same as published cAMP data), the “rank order of potency (agonists)” value is reported as “naphazoline>octopamine>amitraz>clonidine>tolazoline”.
With `C[C@H](CCC(=O)O)C[C@H](C)C[C@H](C)C(=O)/C=C(\O)[C@H](C)C[C@H](C)C/C=C/[C@@H](C)[C@@H](O)[C@@H](C)[C@@H](O)C[C@@H]1CC[C@@](C)([C@H]2CC[C@@](C)([C@@H](C)O)O2)O1` [ionomycin], the “increase in assay window size, freshly-prepared versus solution of the day before” value in series [5] is 6%. Besides, the EC50 on DmSK stood at 200 nM. In addition, the “concentration above which no increase in response window” value on DmSK (SK3, relative to controls) was 800 nM.

The term EC50 denotes the concentration that produces a half-maximal response.

The values are drawn from patent US9029080B2, “Screening assay for insecticides” (priority 2008, dated 2015).
